Test results: US20240390499A1, “METHOD” (OSLO UNIVERSITETSSYKEHUS HF, priority 2021, published 2024)

Columns and labels:
LN18 cells = test: MTT cell viability assay, DZ325 + cercosporin (FIG. 1); type: cell-based, human
Procedure: FIG. 1—Cell viability of LN18 cells: Compound DZ325+cercosporin.
(§1) The efficacy of the chemiluminescent compounds DZ325 and EK297 was tested in cell cultures of human glioblastoma multiforme cell lines (U87, T98G, M059K and LN-18).
(§2) The cells were inoculated in 96-well plates and left to attach overnight at 37° C. in a 5% CO2, humidified atmosphere. Subsequently the cells were incubated with (i) the photosensitizer (cercosporin) or the photosensitizer precursor (5-ALA, for the generation of the photosensitizer PpIX); and (ii) the compound at the appropriate concentration. In the case of 5-ALA, its introduction to the cell culture preceded that of the chemiluminescent compound by 1 hour to ensure adequate PpIX production. In the case of cercosporin, it was administered at the same time as the chemiluminescent compound. […]
(§3) 24 hours from the introduction of the chemiluminescent compounds to the cells, the cell media was removed and replaced with 100 μL of media containing 0.5 mg/mL thiazolyl blue salts for the performance of a standard MTT viability assay. […] The endpoint absorbance measurement was made at 561 nm. […] The experimental cell viability of the combined treatment (photosensitizer+chemiluminescent compound) was compared to the theoretical additive treatment of the photosensitizer+chemiluminescent compound which was calculated as follows: […]

M059K cells = test: MTT cell viability assay, DZ325 + cercosporin (FIG. 2); type: cell-based, human
Procedure: FIG. 2—Cell viability of M059K cells: Compound DZ325+cercosporin.
as §1, §2, §3

[1] = system: human glioblastoma multiforme cell lines (U87, T98G, M059K and LN-18); test: MTT cell viability assay, chemiluminescent compound plus photosensitizer (FIG. 3); type: cell-based
Procedure: as §1
The cells were inoculated in 96-well plates and left to attach overnight at 37° C. in a 5% CO2, humidified atmosphere. Subsequently the cells were incubated with (i) the photosensitizer (cercosporin) or the photosensitizer precursor (5-ALA, for the generation of the photosensitizer PpIX); and (ii) the compound at the appropriate concentration. In the case of 5-ALA, its introduction to the cell culture preceded that of the chemiluminescent compound by 1 hour to ensure adequate PpIX production. In the case of cercosporin, it was administered at the same time as the chemiluminescent compound.
The chemiluminescent compounds were prepared as 50 mM stock solutions in DMSO (or 1-methyl-2-pyrrolidone) and diluted in cell media to their final concentrations. Cercosporin was prepared as a 4 mM solution in DMSO and appropriately diluted in cell media. 5-ALA was made to its final concentration in Optimem. In the case of the luminol-based compound (DZ325), Cu was in some cases added to the cell media in the form of CuSO4 at a final concentration of 100 μM.
24 hours from the introduction of the chemiluminescent compounds to the cells, the cell media was removed and replaced with 100 μL of media containing 0.5 mg/mL thiazolyl blue salts for the performance of a standard MTT viability assay. The MTT containing medium was left to incubate for 1 to 3 hours and then removed and replaced with 100 μL DMSO. The endpoint absorbance measurement was made at 561 nm. Media only controls were used as 100% cell viability controls. The experimental cell viability of the combined treatment (photosensitizer+chemiluminescent compound) was compared to the theoretical additive treatment of the photosensitizer+chemiluminescent compound which was calculated as follows:
In each figure, one example of synergy is highlighted. […] Calculated cell viability is determined according to the following equation (in which “PS”=photosensitizer; “CL”=chemiluminescent agent): […]

**Q.** Cc1ccc(S(=O)(=O)NCCCNc2cccc3c(=O)[nH][nH]c(=O)c23)cc1 [DZ325, N-(3-((1,4-dioxo-1,2,3,4-tetrahydrophthalazin-5-yl)amino)propyl)-4-methylbenzenesulfonamide] was tested. Which “synergy between chemiluminescent compound and photosensitizer” value (LN18 cells) did it give?
**A.** Its value is “synergy”.

**Q.** What about the “synergy between chemiluminescent compound and photosensitizer” value (M059K cells) of the same compound?
**A.** The value was “synergy”.

**Q.** Which “experimental cell viability of combined treatment” value ([1]; 3 μM cercosporin+400 μM EK297, MTT 24 hours, FIG. 3) does the source give for Cc1ccc(S(=O)(=O)N2CCN(C(=O)c3cc(Br)c(OC(=O)c4c5ccccc5[n+](C)c5ccccc45)c(Br)c3)CC2)cc1.O=S(=O)([O-])C(F)(F)F [EK297, 9-((2,6-dibromo-4-(4-tosylpiperazine-1-carbonyl)phenoxy)carbonyl)-10-methylacridin-10-ium trifluoromethanesulfonate] here?
**A.** Its value is 21.5%.

**Q.** What about the “calculated cell viability (theoretical additive)” value ([1]; 3 μM cercosporin+400 μM EK297, calculated from single-agent viabilities) of the same compound?
**A.** Its value is 59.5%.

**Q.** What about the “synergy between chemiluminescent compound and photosensitizer” value ([1]; EK297 with cercosporin, experimental vs calculated viability) of the same compound?
**A.** The value was “cytotoxic synergy”.

**Q.** What about the viability at 400 µM ([1]; Homo sapiens, 400 μM EK297 alone, MTT 24 hours, FIG. 3, cell line not stated, read-out: cell viability (printed as 'toxicity')) of the same compound?
**A.** The viability at 400 µM was 74.5%.

**Q.** Which viability at 3 µM ([1]; Homo sapiens, 24 h, read-out: cell viability) does the source give for COc1c(CC(C)O)c2c3c(CC(C)O)c(OC)c(=O)c4c(O)cc5c(c6c(cc(O)c(c1=O)c62)OCO5)c43 (stereo not shown) [cercosporin, reference compound] here?
**A.** The viability at 3 µM was 80%.
